According to patent publication US6300499A, “α1-adrenergic receptor antagonists” (Societe de Conseils de Recherches et d'Applications …, priority 1998, dated 2001):

Tests used:
portal vein of the rat = assay: Test of the contraction of the portal vein of the rat (phenylephrine); parameters: species or system rat (male Sprague Dawley)
Description: (§1) The aorta and the portal vein are extracted from male Sprague Dawley rats (275-350 g, Charles River, France) after cervical dislocation and cleaned of the surrounding connective tissues. […] The contractile responses are measured using force displacement transducers either coupled to a Gould […] polygraph or connected to a data retrieval system ([…], France). A one hour period of equilibration or equalization is provided before the experiment. […] Seventy five minutes, after the sensitization, a concentration-effect curve for the phenylephrine is established. In order to determine the effect of the test compounds, different preparations are used in parallel. One preparation serves as a control whilst the others receive different test compounds introduced into the bath 60 minutes before the aministration of the phenylephrine. The results are expressed as averages ±S.E.M. or percentage of contraction. […] The EC50 values are calculated from the maximum contractile response by computer analysis using a linear regression over the average tension values.

prostatic urethrae = assay: Urethra Contraction Test (inhibition of phenylephrine contraction of prostatic urethra); parameters: species or system rabbit (male New Zealand); conditions: inhibition of contraction of rabbit prostatic urethra, agonist phenylephrine, compound 30 min before
Description: The urethrae are removed from male New Zealand rabibits, and cleaned of the surrounding connective tissues. Bands of prostatic urethrae (3 mm wide, 10-15 mm long) are suspended (1 g tension) in organ baths containing 10 ml of physiological solution (pH 7.4) at 37° C. under an atmosphere of 95% O2 /5% CO2; NaCl (118 mM); KCl (4.7 mM); CaCl2 (2.5 mM); KH2 PO4 (1.2 mM); MgSO4 (1.2 mM); NaHCO3 (25 mM); glucose (11 mM). The contractile responses are measured using force displacement transducers coupled to a Gould 8000S polygraph. A one hour period of equilibration or equalization is provided before the experiment. After equalization, the preparations are sensitized by a submaximal concentration of phenylephrine. Forty five minutes after the sensitization, a concentration-effect curve for the phenylephrine is established. In order to determine the effect of the test compounds, different preparations originating from the same animal are used in parallel. One preparation serves as a control whilst the others receive a concentration of a test compound introduced into the bath 30 minutes before the phenylephrine (Auguet, M. et al. European J. Pharmacol. 217:153 (1995)).
The dissociation constants (Kb) of the test compounds are determined using the following equation: Kb =[B]/(dose ratio--1); in which [B] is the concentration of test compound and (dose ratio) is the EC50 of phenylephrine in the presence of the test compound divided by the EC50 of the control preparation. These resultats are then expressed as the negative logarithm of Kb. The values of the EC50 are calculated from the maximum contractile response to the phenylephrine by computer analysis using a linear regression over the average tension values. The maximum contractile response of each preparation which was subjected to the test compound is determined by comparing the response provoked by the application of the sensitizing concentration of phenylephrine with the response provoked in the control preparation (which has not received the test compounds).

aorta of the rabbit = assay: Test of the contraction of the aorta of the rabbit (phenylephrine); parameters: species or system rabbit (male New Zealand); conditions: agonist phenylephrine, compound 60 min before
Description: (§2) The aorta and the portal vein are extracted from male New-Zealand rabbits (2.5-3.5 kg, Dombes Romans, France) after cervical dislocation and cleaned of the surrounding connective tissues. […] The contractile responses are measured using force displacement transducers coupled to a Gould RS3400 polygraph. A one hour period of equilibration or equalization is provided before the experiment. […] When the contraction provoked by the phenylephrine is stabilized, carbachol (10 μM) is administered with the aim of controlling the disorganisation of the endothelium in the vessels. Seventy five minutes after the sensitization, a concentration-effect curve for the phenylephrine is established. In order to determine the effect of the test compounds, different preparations are used in parallel. One preparation serves as a control whilst the others receive different concentrations of test compounds introduced into the bath 60 minutes before the phenylephrine. The results are expressed as averages ±S.E.M. or percentage of contraction. […] The EC50 values are calculated from the maximum contractile response by computer analysis using a linear regression over the average tension values.

α1-adrenergic receptor = assay: Test of the bond to the α1-adrenergic receptor (inhibition of [3H]prazosin bond to rat cerebral cortex); type: binding, rat (male Sprague Dawley); conditions: [3H]prazosin 0.2 nM, rat cerebral cortex membranes, 30 min, 25° C., pH 7.7
Description: The cerebral cortices of male Sprague Dawley rats are homogenized at 4° C. in Tris-HCl 50 mM pH=7.7 and centrifuged at 50,000 g for 30 minutes at 4° C. The pellets are again suspended in the same buffer and centrifuged again at 50,000 g for 30 minutes at 4° C.
The filters are rinsed three times with the same buffer at 0-4° C. and their radioactivity is tested by liquid scintillation spectrometry.
The specific bonds are obtained by subtracting the non-specific bonds (determined in the presence of 10 μM of phentolamine (Sigma Chemical Co. St. Louis Mo.)) from the total bonds. The data relative to the bonds is analyzed by computer assisted iterative non-linear regression analysis, using the Ligand program (Munson, P. J., Rodbard, D. Anal. Biochem. 107:220 (1980)).

[1] = system: portal vein of the rabbit; assay: Test of the contraction of the portal vein of the rabbit (phenylephrine); parameters: species or system rabbit (male New Zealand)
Description: as §2

aorta of the rat = assay: Test of the contraction of the aorta of the rat (phenylephrine); parameters: species or system rat (male Sprague Dawley); conditions: agonist phenylephrine, compound 60 min before
Description: as §1

[2] = system: saphenous vein of the rabbit; assay: Test of the contraction of the saphenous vein of the rabbit (phenylephrine); parameters: species or system rabbit (male New Zealand)
Description: The contractile responses are measured using force displacement transducers coupled to a Gould RS3400 polygraph. […] A one hour period of equilibration or equalization is provided before the experiment. During this equalization period, the tension of the venous rings is left to relax and the final tension is maintained at 0.5 g. After equalization, the preparations are sensitized by a submaximal concentration (3 μM) of phenylephrine. When the contraction triggered by the phenylephrine is stabilized, carbachol (10 μM) is administered in order to control the disorganisation of the endothelium in the vessels. Seventy five minutes after the sensitization, a concentration-effect curve for the phenylephrine is established. In order to determine the effect of the test compounds, different preparations are used in parallel. One preparation serves as a control whilst the others receive different test compounds introduced into the bath 60 minutes before the administration of the phenylephrine The results are expressed as averages ±S.E.M. or percentage of contraction. […] The EC50 values are calculated from the maximum contractile response by computer analysis using a linear regression over the average tension values.

Cc1ccc(C)c(N2CCN(CCCNC(=O)[C@@](C)(O)c3ccccc3)CC2)c1 [Compound 45, S-(+)-N-[3-{4-(2,5-dimethylphenyl)-1-piperazinyl}-propyl]-α-hydroxy-α-methyl-benzeneacetamide] was tested, and the Kb (portal vein of the rat; rat portal vein, agonist phenylephrine, compound 60 min before) was 1.4 nM, the “Selectivity Kb (Aorta)/Kb (Vein)” value (portal vein of the rat; rat, aorta / portal vein) was 32 and the “-log Kb” value (prostatic urethrae) was 8.3. The Kb (aorta of the rabbit) was 63 nM, the Ki (α1-adrenergic receptor) was 13 nM and the Kb ([1]; rabbit portal vein, agonist phenylephrine, compound 60 min before) was 1.6 nM. For the same molecule, the “Selectivity Kb (Aorta)/Kb (Vein)” value ([1]; rabbit, aorta / portal vein) was 40, the Kb (aorta of the rat) was 45 nM and the Kb ([2]; rabbit saphenous vein, agonist phenylephrine, compound 60 min before) was 15 nM. For the same molecule, the “Selectivity Kb (Salphenous vein)/Kb (Portal vein)” value ([2]; rabbit, saphenous vein / portal vein) was 8.4.
